Structures are written as SMILES.

This series in a line: Storage stability of sialyl phosphate donors. The format is physicochemical. To be noted: −20° C., several months. The procedure:
The reaction was complete in 5 h to give a mixture of α- and β-anomers. The sialyl α-phosphate 2a and sialyl β-phosphate 2b can be easily separated by silica gel column chromatography and are both stable at −20° C. for several months.

Regarding `CCCCOP(=O)(OCCCC)OC1(C(=O)OC)CC(OC(C)=O)[C@@H](NC(C)=O)C([C@H](OC(C)=O)[C@@H](COC(C)=O)OC(C)=O)O1` (stereo partly shown) [2a], the stability on storage entry was “stable”.
